Values after ≈ are worked out from the molar mass of the structure shown. Where two headings read alike, the source gives them in different places.
Experiments:
[1] = system: S. aureus IID670 (Terajima); assay: In vitro antibacterial activity (MIC, agar dilution); format: cell-based; conditions: Staphylococcus aureus
Protocol: (§1) The minimum inhibitory concentration (MIC) of the compound (I) was determined by an agar dilution technique (the standard method of Japan Society of Chemotherapy) against standard strains of gram-positive and gram-negative bacteria.
(§2) Inoculum size: 10^8 cells/ml

S. pyogenes S-8 = assay: as above; format: cell-based; conditions: Streptococcus pyogenes, S8
Protocol: as §1, §2

[2] = system: Staphylococcus aureus 209P; assay: as above; format: cell-based
Protocol: as §1, §2

Shigella sonnei IID969 = assay: as above; format: cell-based; conditions: inoculum 10^8 cells/ml
Protocol: as §1, §2

[3] = system: Citrobacter freundii IID976; assay: as above; format: cell-based; conditions: inoculum 10^8 cells/ml
Protocol: as §1, §2

[4] = system: Pseudomonas aeruginosa V-1; assay: as above; format: cell-based; conditions: V1
Protocol: as §1, §2

P. morganii IID602 = assay: as above; format: cell-based; conditions: Morganella morganii, inoculum 10^8 cells/ml
Protocol: as §1, §2

[5] = system: Alcaligenes faecalis 0104002; assay: as above; format: cell-based; conditions: inoculum 10^8 cells/ml
Protocol: as §1, §2

S. epidermidis IID866 = assay: as above; format: cell-based; conditions: Staphylococcus epidermidis, inoculum 10^8 cells/ml
Protocol: as §1, §2

P. mirabilis IID994 = assay: as above; format: cell-based; conditions: Proteus mirabilis, inoculum 10^8 cells/ml
Protocol: as §1, §2

[6] = system: Klebsiella pneumoniae IFO3512; assay: as above; format: cell-based
Protocol: as §1, §2

[7] = system: Enterobacter cloacae IID977; assay: as above; format: cell-based; conditions: inoculum 10^8 cells/ml
Protocol: as §1, §2

[8] = system: Serratia marcescens IID618; assay: as above; format: cell-based; conditions: inoculum 10^8 cells/ml
Protocol: as §1, §2

P. aeruginosa IFO12689 = assay: as above; format: cell-based; conditions: Pseudomonas aeruginosa
Protocol: as §1, §2

S. pneumoniae IID552 = assay: as above; format: cell-based; conditions: Streptococcus pneumoniae
Protocol: as §1, §2

[9] = system: Acinetobacter enitratus IID876; assay: as above; format: cell-based; conditions: inoculum 10^8 cells/ml
Protocol: as §1, §2

[10] = system: Salmonella enteritidis IID604; assay: as above; format: cell-based; conditions: Salmonella enterica
Protocol: as §1, §2

[11] = system: Bacillus subtilis PCI 219; assay: as above; format: cell-based; conditions: PCI219
Protocol: as §1, §2

S. faecalis IID682 = assay: as above; format: cell-based; conditions: Enterococcus faecalis
Protocol: as §1, §2

[12] = system: Yersinia enterocolitica IID981; assay: as above; format: cell-based; conditions: inoculum 10^8 cells/ml
Protocol: as §1, §2

E. coli NIHJ JC-2 = assay: as above; format: cell-based; conditions: Escherichia coli, NIHJJC2
Protocol: as §1, §2

[13] = system: Streptococcus pyogenes IID692; assay: as above; format: cell-based
Protocol: as §1, §2

[14] = system: Haemophilus influenzae IID986; assay: as above; format: cell-based
Protocol: as §1, §2

E. coli ATCC10536 = assay: as above; format: cell-based; conditions: Escherichia coli
Protocol: as §1, §2

Proteus vulgaris IFO3167 = assay: as above; format: cell-based
Protocol: as §1, §2

gram-negative bacteria [15] = assay: In vitro antibacterial activity against gram-negative bacteria (in words); format: cell-based; conditions: for Antibacterial activity on gram-negative bacteria, in words: in vitro
Protocol: as §1

gram-negative bacteria [16] = conditions: background; cited from earlier work
[17] = system: Staphylococcus aureus Smith; assay: In vivo antibacterial activity, systemic infection in mice; design: species or system mice (male, ICR); conditions: Staphylococcus aureus, 168 h
Protocol: (§3) The in vivo antibacterial activity of the compound (I) was determined in systemic infection in mice. The systemic infections were produced in male mice ICR (body weight, 19±2 g) by inoculating intraperitoneally with Staphylococcus aureus Smith and E. coli ML4707. The compounds were administered orally in divided doses at 0 and 4 hrs. after infection. The therapeutic effect of drugs was judged from the number of mice surviving after 7 days of observation. A comparison of in vivo antibacterial activity was made on the basis of the […] effective dose (ED50) calculated by the method of Litchfield and Wilcoxon.

E. coli ML4707 [18] = assay: as above; design: species or system mice (male, ICR); conditions: Escherichia coli
Protocol: as §3

Streptococcus spp. = assay: In vitro antibacterial activity against Streptococcus spp. (in words); format: cell-based
Protocol: as §1

[19] = system: Staphylococcus aureus Smith; assay: MIC against the infecting strain (Table 2); format: cell-based
Protocol: as §1

E. coli ML4707 [20] = assay: MIC against the infecting strain (Table 2); format: cell-based; conditions: Escherichia coli, ML4707
Protocol: as §1

gram-positive bacteria [21] = conditions: background; cited from earlier work
gram-positive bacteria [22] = assay: In vitro antibacterial activity against gram-positive bacteria (in words); format: cell-based
Protocol: as §1

[23] = S. aureus IID670 (Terajima), inoculum 10^8 cells/ml, read-out: MIC
[24] = S. pyogenes S-8, inoculum 10^8 cells/ml, read-out: MIC
[25] = Staphylococcus aureus 209P, inoculum 10^8 cells/ml, read-out: MIC
[26] = Pseudomonas aeruginosa V-1, inoculum 10^8 cells/ml, read-out: MIC
[27] = P. aeruginosa IFO12689, inoculum 10^8 cells/ml, read-out: MIC
[28] = S. pneumoniae IID552, inoculum 10^8 cells/ml, read-out: MIC
[29] = Salmonella enteritidis IID604, inoculum 10^8 cells/ml, read-out: MIC
[30] = Bacillus subtilis PCI 219, inoculum 10^8 cells/ml, read-out: MIC
[31] = S. faecalis IID682, inoculum 10^8 cells/ml, read-out: MIC
[32] = Streptococcus pyogenes IID692, inoculum 10^8 cells/ml, read-out: MIC
[33] = Proteus vulgaris IFO3167, inoculum 10^8 cells/ml, read-out: MIC

| Compound | MIC [1, 23] [µg/mL] | MIC (S. pyogenes S-8; [24]) [µg/mL] | MIC [2, 25] [µg/mL] | MIC (Shigella sonnei IID969) [µg/mL] | MIC [4, 26] [µg/mL] | MIC (P. aeruginosa IFO12689; [27]) [µg/mL] | MIC (S. pneumoniae IID552; [28]) [µg/mL] | MIC [10, 29] [µg/mL] | MIC [11, 30] [µg/mL] | MIC (S. faecalis IID682; [31]) [µg/mL] | MIC [13, 32] [µg/mL] | MIC ([14]; Haemophilus influenzae, IID986) [µg/mL] | MIC (Proteus vulgaris IFO3167; [33]) [µg/mL] | Effectiveness in therapy of infections due to gram-negative bacteria, in words (gram-negative bacteria [16]) | MIC ([6]; Klebsiella pneumoniae, IFO3512) [µg/mL] | MIC (E. coli NIHJ JC-2) [µg/mL] | MIC (E. coli ATCC10536; ATCC10536) [µg/mL] | Susceptibility of Streptococcus spp., in words (Streptococcus spp.) | MIC (E. coli ML4707 [20]) [µg/mL] | Activity against most gram-positive bacteria, in words (gram-positive bacteria [21]) | also measured |
| --- | --- | --- | --- | --- | --- | --- | --- | --- | --- | --- | --- | --- | --- | --- | --- | --- | --- | --- | --- | --- | --- |
| CCn1cc(C(=O)O)c(=O)c2cc(F)c(N3CCNCC3)c(F)c21 [Metabolite, 1-ethyl-6,8-difluoro-1,4-dihydro-4-oxo-7-(1-piperazinyl)quinoline-3-carboxylic acid] | 0.78 (≈ 2.31 µM) | 12.5 (≈ 37.1 µM) | 0.78 (≈ 2.31 µM) | 0.05 (≈ 0.148 µM) | 0.78 (≈ 2.31 µM) | 1.56 (≈ 4.62 µM) | 6.25 (≈ 18.5 µM) | 0.1 (≈ 0.296 µM) | 0.2 (≈ 0.593 µM) | 3.13 (≈ 9.28 µM) | 3.13 (≈ 9.28 µM) | 0.025 (≈ 0.0741 µM) | 0.05 (≈ 0.148 µM) | – | – | – | – | – | – | – | MIC [3]: 0.1 µg/mL (≈ 0.296 µM); MIC (P. morganii IID602): 0.1 µg/mL (≈ 0.296 µM); MIC [5]: 0.78 µg/mL (≈ 2.31 µM); MIC (S. epidermidis IID866): 0.78 µg/mL (≈ 2.31 µM); MIC (P. mirabilis IID994): 0.05 µg/mL (≈ 0.148 µM); MIC ([6]; Klebsiella pneumoniae IFO3512, inoculum 10^8 cells/ml, read-out: MIC): 0.05 µg/mL (≈ 0.148 µM); MIC [7]: 0.1 µg/mL (≈ 0.296 µM); MIC [8]: 0.1 µg/mL (≈ 0.296 µM); MIC [9]: 0.78 µg/mL (≈ 2.31 µM); MIC [12]: 0.1 µg/mL (≈ 0.296 µM); MIC (E. coli NIHJ JC-2; E. coli NIHJ JC-2, inoculum 10^8 cells/ml, read-out: MIC): 0.05 µg/mL (≈ 0.148 µM); MIC (E. coli ATCC10536; E. coli ATCC10536, inoculum 10^8 cells/ml, read-out: MIC): 0.05 µg/mL (≈ 0.148 µM); Activity of the metabolite against gram-negative bacteria, in words (gram-negative bacteria [15]; general statement): superior activity against gram-negative bacteria |
| CCn1cc(C(=O)O)c(=O)c2ccc(C)nc21 [NA, Nalidixic acid] | – | – | – | 1.56 (≈ 6.72 µM) | – | – | – | – | – | – | – | 1.56 (≈ 6.72 µM) | – | highly effective in the therapy of infections due to gram-negative bacteria | 1.56 (≈ 6.72 µM) | 3.13 (≈ 13.5 µM) | 3.13 (≈ 13.5 µM) | not susceptible | 3.13 (≈ 13.5 µM) | only weak activities against most gram-positive bacteria | MIC ([1]; IID670): > 100 µg/mL; MIC (S. pyogenes S-8): > 100 µg/mL; MIC ([2]; Staphylococcus aureus, 209P): 100 µg/mL (≈ 431 µM); MIC ([4]; Pseudomonas aeruginosa): 100 µg/mL (≈ 431 µM); MIC (P. aeruginosa IFO12689; IFO12689): > 100 µg/mL; MIC (S. pneumoniae IID552; IID552): > 100 µg/mL; MIC [10]: 12.5 µg/mL (≈ 53.8 µM); MIC ([11]; Bacillus subtilis): 6.25 µg/mL (≈ 26.9 µM); MIC (S. faecalis IID682; IID682): > 100 µg/mL; MIC ([13]; Streptococcus pyogenes, IID692): > 100 µg/mL; MIC (Proteus vulgaris IFO3167; Proteus vulgaris, IFO3167): 3.13 µg/mL (≈ 13.5 µM); ED50 ([17]; po): 635 mg/kg; ED50 (E. coli ML4707 [18]; ML4707, po, 168 h): 38.3 mg/kg; MIC ([19]; Staphylococcus aureus): 25 µg/mL (≈ 108 µM); Antibacterial activity on gram-negative bacteria, in words (gram-negative bacteria [15]): exerted antibacterial activity mainly on gram-negative bacteria; Antibacterial activity on gram-positive bacteria, in words (gram-positive bacteria [22]): inactive on many strains of gram-positive bacteria |
| CCn1cc(C(=O)O)c(=O)c2cnc(N3CCCC3)nc21 [piromidic acid] | – | – | – | – | – | – | – | – | – | – | – | – | – | highly effective in the therapy of infections due to gram-negative bacteria | – | – | – | – | – | only weak activities against most gram-positive bacteria | – |
| CCn1cc(C(=O)O)c(=O)c2cnc(N3CCNCC3)nc21 [PPA, Pipemidic acid] | 25 (≈ 82.4 µM) | > 100 | 25 (≈ 82.4 µM) | 1.56 (≈ 5.14 µM) | 12.5 (≈ 41.2 µM) | 25 (≈ 82.4 µM) | > 100 | 12.5 (≈ 41.2 µM) | 6.25 (≈ 20.6 µM) | > 100 | > 100 | – | 3.13 (≈ 10.3 µM) | highly effective in the therapy of infections due to gram-negative bacteria | 1.56 (≈ 5.14 µM) | 1.56 (≈ 5.14 µM) | 1.56 (≈ 5.14 µM) | not susceptible | 1.56 (≈ 5.14 µM) | only weak activities against most gram-positive bacteria | MIC ([14]; Haemophilus influenzae IID986, inoculum 10^8 cells/ml, read-out: MIC): 3.13 µg/mL (≈ 10.3 µM); ED50 ([17]; mice, oral at 0 and 4 hrs. after infection, challenge 2.4 × 10^5 cells/animal in BHI containing mucin, 7 days survival, read-out: ED50): 231 mg/kg; ED50 (E. coli ML4707 [18]; ML4707, 168 h, mice, oral at 0 and 4 hrs. after infection, challenge 1.2 × 10^7 cells/animal in saline, 7 days survival, read-out: ED50): 38.9 mg/kg; MIC ([19]; Staphylococcus aureus Smith, read-out: MIC): 12.5 µg/mL (≈ 41.2 µM); Antibacterial activity on gram-negative bacteria, in words (gram-negative bacteria [15]): exerted antibacterial activity mainly on gram-negative bacteria; Antibacterial activity on gram-positive bacteria, in words (gram-positive bacteria [22]): inactive on many strains of gram-positive bacteria |
